Data published in publication PMC12203311, “Design, synthesis, in silico and in vitro evaluation of pyrrole–indole hybrids as dual tubulin and aromatase inhibitors with potent anticancer activities” (RSC Advances, 2025).

How the values were obtained:
MALME-3M = assay: NCI60 five-dose screen; type: cell-based; conditions: Homo sapiens, melanoma; for CC50: read-out: LC50 (the source's name)
OVCAR-3 = assay: NCI60 five-dose screen; type: cell-based; conditions: Homo sapiens, OVCAR-3, ovarian cancer; for CC50: read-out: LC50 (the source's name)
HL-60 (TB) = assay: NCI60 five-dose screen; type: cell-based; conditions: Homo sapiens, leukemia; for CC50: read-out: LC50 (the source's name)
Human CYP19 (aromatase) = target: T1, Human CYP19 (aromatase) (Homo sapiens, UniProt P11511); assay: Aromatase inhibition assay (DBF fluorometric substrate); type: biochemical; conditions: active defined as IC50 < 12.5 µM
T1 construct: purchased GENTEST, Woburn, MA 456260; host or cells: baculovirus/insect cells
T1 sequence (P11511 1-503): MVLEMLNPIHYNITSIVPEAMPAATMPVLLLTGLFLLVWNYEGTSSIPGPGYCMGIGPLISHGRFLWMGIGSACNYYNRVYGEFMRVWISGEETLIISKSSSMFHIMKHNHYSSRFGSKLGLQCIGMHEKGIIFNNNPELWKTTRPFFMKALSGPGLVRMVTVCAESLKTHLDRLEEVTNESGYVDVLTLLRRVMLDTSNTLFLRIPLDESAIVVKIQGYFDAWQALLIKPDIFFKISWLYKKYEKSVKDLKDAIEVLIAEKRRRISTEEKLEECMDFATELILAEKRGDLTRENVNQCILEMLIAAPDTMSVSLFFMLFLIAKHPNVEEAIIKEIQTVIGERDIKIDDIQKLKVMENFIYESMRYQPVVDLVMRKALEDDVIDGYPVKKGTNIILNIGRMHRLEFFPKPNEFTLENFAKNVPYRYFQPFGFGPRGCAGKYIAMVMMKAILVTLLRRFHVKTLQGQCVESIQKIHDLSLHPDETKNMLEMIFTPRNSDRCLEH
Outline: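 Insect-cell-expressed human CYP19 Supersomes with oxidoreductase turned over DBF for 30 min at 37 °C after a 10 min 37 °C pre-incubation with cofactor. NaOH quench; product measured by fluorescence, excitation 490 nm, emission 530 nm.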

LOX IMVI = assay: NCI60 five-dose screen; type: cell-based; conditions: Homo sapiens, melanoma; for CC50: read-out: LC50 (the source's name)
786-0 = assay: NCI60 five-dose screen; type: cell-based; conditions: Homo sapiens, 786-0, renal cancer; for CC50: read-out: LC50 (the source's name)
CAKI-1 = assay: NCI60 five-dose screen; type: cell-based; conditions: Homo sapiens, CAKI-1, renal cancer; for CC50: read-out: LC50 (the source's name)
TK-10 = assay: NCI60 five-dose screen; type: cell-based; conditions: Homo sapiens, TK-10, renal cancer; for CC50: read-out: LC50 (the source's name)
SNB-75 = assay: NCI60 five-dose screen; type: cell-based; conditions: Homo sapiens, SNB-75, CNS cancer; for CC50: read-out: LC50 (the source's name)
SF-268 = assay: NCI60 five-dose screen; type: cell-based; conditions: Homo sapiens, SF-268, CNS cancer; for CC50: read-out: LC50 (the source's name)
MDA-MB-435 = assay: NCI60 five-dose screen; type: cell-based, human; conditions: Homo sapiens; for CC50: MDA-MB-435, MDA-MB-435, melanoma, read-out: LC50 (the source's name); for GI50: MDA-MB-435, melanoma
OVCAR-5 = assay: NCI60 five-dose screen; type: cell-based; conditions: Homo sapiens, OVCAR-5, ovarian cancer; for CC50: read-out: LC50 (the source's name)
MDA-MB-468 = assay: NCI60 five-dose screen; type: cell-based; conditions: Homo sapiens, MDA-MB-468, breast cancer; for CC50: read-out: LC50 (the source's name)
HS 578T = assay: NCI60 five-dose screen; type: cell-based; conditions: Homo sapiens, breast cancer; for CC50: read-out: LC50 (the source's name)
A549/ATCC = assay: NCI60 five-dose screen; type: cell-based; conditions: Homo sapiens, NSC lung cancer; for CC50: read-out: LC50 (the source's name)
HCC-2998 = assay: NCI60 five-dose screen; type: cell-based; conditions: Homo sapiens, HCC-2998, colon cancer; for CC50: read-out: LC50 (the source's name)
BT-549 = assay: NCI60 five-dose screen; type: cell-based; conditions: Homo sapiens, BT-549, breast cancer; for CC50: read-out: LC50 (the source's name)
SK-MEL-5 = assay: NCI60 five-dose screen; type: cell-based, human; conditions: Homo sapiens; for CC50: SK-MEL-5, SK-MEL-5, melanoma, read-out: LC50 (the source's name); for GI50: SK-MEL-5, melanoma
SNB-19 = assay: NCI60 five-dose screen; type: cell-based; conditions: Homo sapiens, SNB-19, CNS cancer; for CC50: read-out: LC50 (the source's name)
DU-145 = assay: NCI60 five-dose screen; type: cell-based; conditions: Homo sapiens, DU-145, prostate cancer; for CC50: read-out: LC50 (the source's name)
NCI-H226 = assay: NCI60 five-dose screen; type: cell-based; conditions: Homo sapiens, NCI-H226, NSC lung cancer; for CC50: read-out: LC50 (the source's name)
UACC-62 = assay: NCI60 five-dose screen; type: cell-based; conditions: Homo sapiens, UACC-62, melanoma; for CC50: read-out: LC50 (the source's name)
SK-OV-3 = assay: NCI60 five-dose screen; type: cell-based; conditions: Homo sapiens, SK-OV-3, ovarian cancer; for CC50: read-out: LC50 (the source's name)
COLO 205 = assay: NCI60 five-dose screen; type: cell-based, human; conditions: Homo sapiens; for CC50: COLO 205, COLO 205, colon cancer, read-out: LC50 (the source's name); for GI50: COLO 205, colon cancer
NCI-H23 = assay: NCI60 five-dose screen; type: cell-based; conditions: Homo sapiens, NCI-H23, NSC lung cancer; for CC50: read-out: LC50 (the source's name)

For `CCOC(=O)c1c[nH]c(/C=N/NC(=O)c2[nH]c3ccc(Br)cc3c2-c2ccccc2)c1` [Derivative 3j, Ethyl (E)-5-((2-(5-bromo-3-phenyl-1H-indole-2-carbonyl)hydrazono)methyl)-1H-pyrrole-3-carboxylate], the GI50 (MALME-3M) was 6.06 µM, the CC50 (MALME-3M) was 54.9 µM and the GI50 (OVCAR-3) was 2.13 µM. The CC50 (OVCAR-3) was 23.1 µM, the GI50 (HL-60 (TB)) was 1.5 µM and the CC50 (HL-60 (TB)) was 9.88 µM. The IC50 (Human CYP19 (aromatase)) was 1.3 ± 0.4 µM, the GI50 (LOX IMVI) was 2.82 µM and the CC50 (LOX IMVI) was 40.9 µM. For the same compound, the GI50 (786-0) was 3.29 µM, the CC50 (786-0) was 44.7 µM and the GI50 (CAKI-1) was 1.46 µM. It also gave a CC50 (CAKI-1) of 40.5 µM, a GI50 (TK-10) of 7.35 µM and a CC50 (TK-10) of 46.2 µM. For the same compound, the GI50 (SNB-75) was 1.09 µM, the CC50 (SNB-75) was 35.8 µM and the GI50 (SF-268) was 2.29 µM. The CC50 (SF-268) was 46.3 µM, the CC50 (MDA-MB-435) was 16.1 µM and the GI50 (MDA-MB-435) was 1.09 µM. It also gave a GI50 (OVCAR-5) of 3.87 µM, a CC50 (OVCAR-5) of 42.9 µM and a GI50 (MDA-MB-468) of 2.47 µM. For the same compound, the CC50 (MDA-MB-468) was 24.2 µM, the GI50 (HS 578T) was 2.36 µM and the CC50 (HS 578T) was greater than 100 µM. The GI50 (A549/ATCC) was 2.7 µM, the CC50 (A549/ATCC) was 51.8 µM and the GI50 (HCC-2998) was 2.18 µM. It also gave a CC50 (HCC-2998) of 15.9 µM, a GI50 (BT-549) of 2.23 µM and a CC50 (BT-549) of 29.5 µM. It also gave a CC50 (SK-MEL-5) of 10.1 µM, a GI50 (SK-MEL-5) of 1.44 µM and a GI50 (SNB-19) of 4.51 µM. For the same compound, the CC50 (SNB-19) was 46.1 µM, the GI50 (DU-145) was 3.48 µM and the CC50 (DU-145) was 35.6 µM. For the same compound, the GI50 (NCI-H226) was 3.07 µM, the CC50 (NCI-H226) was 41.3 µM and the GI50 (UACC-62) was 2.92 µM. The CC50 (UACC-62) was 42.6 µM, the GI50 (SK-OV-3) was 4.53 µM and the CC50 (SK-OV-3) was 45.3 µM. The CC50 (COLO 205) was 55.2 µM, the GI50 (COLO 205) was 2.49 µM and the GI50 (NCI-H23) was 3.06 µM. For the same compound, the CC50 (NCI-H23) was 46.4 µM.

Work on `O=C(N/N=C/c1ccc(C(=O)N2CCOCC2)[nH]1)c1[nH]c2ccc(Br)cc2c1-c1ccccc1` [Derivative 3n, (E)-5-Bromo-N′-((5-(morpholine-4-carbonyl)-1H-pyrrol-2-yl)methylene)-3-phenyl-1H-indole-2-carbohydrazide] yielded a GI50 (MALME-3M) of 11.7 µM, a CC50 (MALME-3M) greater than 100 µM and a GI50 (OVCAR-3) of 2.57 µM. For the same compound, the CC50 (OVCAR-3) was 47.4 µM, the GI50 (HL-60 (TB)) was 1.84 µM and the CC50 (HL-60 (TB)) was 8.56 µM. For the same compound, the IC50 (Human CYP19 (aromatase)) was 3.3 ± 0.6 µM, the GI50 (LOX IMVI) was 3.06 µM and the CC50 (LOX IMVI) was 71.2 µM. It also gave a GI50 (786-0) of 2.86 µM, a CC50 (786-0) of 80.7 µM and a GI50 (CAKI-1) of 1.46 µM. It also gave a CC50 (CAKI-1) greater than 100 µM, a GI50 (TK-10) of 10.4 µM and a CC50 (TK-10) greater than 100 µM. It also gave a GI50 (SNB-75) of 0.809 µM, a CC50 (SNB-75) of 88.9 µM and a GI50 (SF-268) of 2.51 µM. For the same compound, the CC50 (SF-268) was greater than 100 µM, the CC50 (MDA-MB-435) was 55.4 µM and the GI50 (MDA-MB-435) was 0.392 µM. The GI50 (OVCAR-5) was 5.78 µM, the CC50 (OVCAR-5) was greater than 100 µM and the GI50 (MDA-MB-468) was 1.98 µM. The CC50 (MDA-MB-468) was 75.5 µM, the GI50 (HS 578T) was 1.04 µM and the CC50 (HS 578T) was greater than 100 µM. It also gave a GI50 (A549/ATCC) of 3.88 µM, a CC50 (A549/ATCC) greater than 100 µM and a GI50 (HCC-2998) of 2.31 µM. For the same compound, the CC50 (HCC-2998) was 42.9 µM, the GI50 (BT-549) was 2.36 µM and the CC50 (BT-549) was 55.2 µM. It also gave a CC50 (SK-MEL-5) of 17 µM, a GI50 (SK-MEL-5) of 1.48 µM and a GI50 (SNB-19) of 5.66 µM. The CC50 (SNB-19) was greater than 100 µM, the GI50 (DU-145) was 3.72 µM and the CC50 (DU-145) was greater than 100 µM. It also gave a GI50 (NCI-H226) of 3.39 µM, a CC50 (NCI-H226) of 81.7 µM and a GI50 (UACC-62) of 0.864 µM. The CC50 (UACC-62) was 63.7 µM, the GI50 (SK-OV-3) was 5.68 µM and the CC50 (SK-OV-3) was greater than 100 µM. For the same compound, the CC50 (COLO 205) was 37.5 µM, the GI50 (COLO 205) was 3.12 µM and the GI50 (NCI-H23) was 2.83 µM. It also gave a CC50 (NCI-H23) of 69.8 µM.
